Assay results from patent US7108832B2, “Sterialization methods and apparatus which employ additive-containing supercritical carbon dioxide sterilant” (NovaSterilis Inc., priority 2003, dated 2006).
Several values for one entry are separate records, joined by “and”; a condition that tells them apart may be missing. Identical values can stand only once.

Legend:
[1] = system: B. subtilis spore/vegetative preparations; test: Sterilization of B. subtilis spore/vegetative preparations with additive-containing supercritical CO2, residual CFU count (Examples 3A-3D, 6A, 6B); assay type: cell-based; conditions: for kill of bioindicators: constant 2000 psi rather than cycling
Method: A sample of B. subtilis spore/vegetative preparations (1 mL) of greater than 10^6 CFU/mL was placed in a 16 mm diameter test tube in a stainless steel basket. Acetic acid (6 mL) was transferred by syringe onto the surface of a cotton ball placed in the basket, which was then loaded into the 600 mL reactor vessel. The reactor vessel was heated to 50° C. and equilibrated with CO2 at atmospheric pressure. […] Agitation was carried out for 1 minute.
After depressurizing the reactor vessel, more acetic acid (4 mL) was introduced at ambient pressure to the additive loop via port 18 (FIG. 1). The loop was sealed and pressurized to 3000 psi. The reactor vessel was the re-pressurized through the additive loop to 3000 psi such that acetic acid was transported into the reactor vessel.
(§1) The pressurization/stirring/agitation/depressurization/additive addition process was repeated a total of three times. After the third cycle, a series of three flushing cycles to remove the additive was performed by pressurizing and de-pressurizing the reactor vessel using CO2. The stirring was stopped and the basket was removed from the reactor vessel. The residual CFUs were counted after serial dilution and culturing of both treated and untreated controls.

[2] = system: B. stearothermophilus spores; test: Linearity of inactivation, B. stearothermophilus spore bioindicators in TYVEK pouches (Example 8); assay type: cell-based; conditions: 4.5% peracetic acid at 0.02 vol. % + water at 1 vol. %
Method: Example 2B was repeated except that 4.5% peracetic acid was initially added to the vessel at 0.02 vol. % on a cotton ball and water was added on a separate cotton ball at 1 vol. %. B. stearothermophilus spores were inoculated onto glass fiber filters, allowed to dry and packaged into pouches formed of nonwoven fine polyethylene fibers (1073B TYVEK® brand material) and served as bioindicators. Total CFUs per filter were greater than 10^6. The bioindicators were exposed to differing times of treatment with 4 replicates per time point. The total remaining CFUs were then determined and a plot was generated of log reduction in CFUs over time (FIG. 3).

[3] = system: B. stearothermophilus spores; test: Comparative additives in supercritical CO2 sterilization (Example 7); assay type: cell-based; conditions: 1.0 vol. %
[4] = system: B. stearothermophilus spores; test: Sterilization of B. stearothermophilus spores with additive-containing supercritical CO2, residual CFU count (Example 2); assay type: cell-based; conditions: 4 mL additive + 6 mL water, 50° C., 2000 to 1100 psi, 3 cycles; multiple evaluations
Method: The apparatus generally depicted in FIGS. 1 and 2 was employed for this Example. A sample of B. stearothermophilus spores (1 mL) of greater than 10^6 CFU/mL was placed in 16 mm diameter test tubes in a stainless steel basket. Trifluoroacetic acid (4 mL) was transferred by syringe onto the surface of a cotton ball placed in the basket and water (6 mL) was placed at bottom of vessel. The basket was then loaded into the 600 mL reactor vessel. The reactor vessel was heated to 50° C. and equilibrated with CO2 at atmospheric pressure. The stirring and agitation mechanisms were activated and the reactor vessel pressurized to 2000 psi for 40 minutes. The CO2 pressure was then allowed to drop to 1100 psi at a rate of 300 psi/minute. Agitation by means of vibration of the vessel was carried out for 1 minute.
as §1, with “The pressurization/stirring/agitation/depressurization process was” for “The pressurization/stirring/agitation/depressurization/additive addition process was”, “pressurizing and partial de-pressurizing the” for “pressurizing and de-pressurizing the”

[5] = system: bacterial spores; test: Sterility assay of fresh or freeze-dried bone samples after treatment (Example 4); assay type: cell-based; conditions: 4 mL additive, 50° C., 3000 to 1500 psi, 3 cycles of 40 minutes
Method: Using the equipment and procedure in Example 1, samples of fresh or freeze-dried bone (1 cm×1 cm×0.5 cm) were placed into 16 mm test tubes in a stainless steel basket. Trifluoroacetic acid (4 mL) was transferred by syringe onto the surface of a cotton ball placed in basket, and the basket then loaded into the 600 mL reactor vessel. The reactor vessel was heated to 50° C. and equilibrated with CO2 at atmospheric pressure. The stirring and agitation mechanisms were activated and vessel pressurized to 3000 psi for 40 minutes. Agitation is carried out for 5 minutes. The CO2 pressure was then allowed to drop to 1500 psi at a rate of 300 psi/minute.
The pressurization/stirring/agitation/depressurization process was repeated a total of 3 times. After the third cycle, a series of three flushing cycles to remove the additive was performed by pressurizing and de-pressurizing the reactor vessel using CO2. The stirring was stopped and the basket was removed from the reactor vessel. Bone samples were assayed for sterility and compression strength with the results being that there was sterilization (i.e., >10^6 reduction in bacterial spores), and there was no reduction in compression strength attributes.

[6] = system: B. subtilis spores; conditions: method of the Dillow et al '864 patent, other investigators (Spilimbergo et al 2002); cited from earlier work
[7] = system: B. stearothermophilus spores; test: Inactivation of B. stearothermophilus spores, Dillow '864 method with and without additive (Example 1); assay type: cell-based; conditions: 1500–3000 psi, 3 cycles, agitation random/directional +/−, 60 °C, 2 hrs, initial 2.3 × 10^6 CFU/ml
From the text: The effects of using an additive in accordance with the present invention was compared using the method described by U.S. Pat. No. 6,149,864 to Dillow et al for inactivating B. stearothermophilus spores. […] In contrast, a greater than 6 log reduction was achieved using the method of the present invention (Ex. B). The additive was placed on a cotton ball and inserted in the chamber prior to closure. No further additive was used.

In the case of CC(=O)OO [peracetic acid], the kill of bioindicators ([1]; Example 6B: as 6A) is reported as “Complete kill”, the “inactivation rates (log reduction in CFUs over time)” value ([2]; bioindicators in TYVEK pouches) is reported as “linear” and the “time for a single log reduction in the bioindicator” value ([2]; spores on glass fiber filters in TYVEK pouches, >10^6 CFUs per filter, 4 replicates per time point) is reported as 14.24 minutes.

For O=C(O)CC(=O)O [Malonic acid], the Log reduction ([3]; 50 C, 2 hours, 3 cycles) was 0–0.12 log.

With O=C(O)C(F)(F)F [Trifluoroacetic acid] the kill of bioindicators [4] was “Complete kill” and the “reduction in bacterial spores (sterility of bone samples)” value [5] was > 10^6.

In the case of O=C=O [supercritical carbon dioxide, carbon dioxide], the “log reduction in B. subtilis spores” value [6] is listed as 3.5 log.

For OCl [HOCl], the Log reduction ([3]; 60 C, 3 hours, 4 cycles) was 0–0.50 log.

For CCO [Ethanol], the Log reduction ([3]; 60–50 C, 3 hours, 4 cycles) was 1.2–4.0 log.

For O=C(O)CCC(=O)O [Succinic acid], the Log reduction ([3]; 50 C, 2 hours, 3 cycles) was 0.25–0.29 log.

For O=P(O)(O)O [Phosphoric acid], the Log reduction ([3]; 50 C, 2 hours, 3 cycles) was 0.18–0.25 log.

For O [Ex. A, Water], the “Final CFU/ml” value [7] was 2.1 × 10^5 CFU/ml and the “Log reduction” value [7] was 1 log and 1.0 log.

With O=CO [Formic acid] the Log reduction ([3]; 50 C, 2 hours, 3 cycles) was 0 log.

With CC(=O)O [acetic acid] the “kill of the B. subtilis present” value ([1]; Example 3B: as 3A, samples with less than 10^6 CFU/ml) was “total kill”, the “log reduction in CFUs extrapolated for greater than 10^6 CFU/ml” value ([1]; Example 3B: extrapolated from total kill of samples with less than 10^6 CFU/ml) was 6 log and the kill of bioindicators ([1]; Example 3D: as 3A) was “Compete kill”.

For O=C(O)CC(O)(CC(=O)O)C(=O)O [50% Citric acid, Citric acid], the Log reduction ([3]; 60 C, 2 hours, 3 cycles) was 0.03–0.62 log.
